Tests used:
Format in all cases: in vivo
[1] = system: Erysiphe graminis f. sp. tritici; test: Test A: preventive spray on wheat seedlings, wheat powdery mildew, disease rating; details: wheat seedlings sprayed to run-off, inoculated the following day with Erysiphe graminis f. sp. tritici, rated after 7 days at 20° C.; test concentration not given
Summary of the method: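 Preventive test: Erysiphe graminis f. sp. tritici spore dust applied one day after run-off spraying of seedlings with acetone/water/surfactant suspension, 200 ppm equating to 500 g/ha. Plants held 7 days at 20 °C; ratings give % disease control versus controls, 100 full, 0 none.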

Puccinia recondita = test: Test B: preventive spray on wheat seedlings, wheat leaf rust, disease rating; details: wheat seedlings sprayed to run-off, inoculated the following day with Puccinia recondita, 24 h saturated atmosphere then 6 days at 20° C.; test concentration not given
Summary of the method: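 Preventive test: seedlings inoculated with Puccinia recondita one day after run-off spraying with test suspension (acetone/water, 250 ppm Trem 014; 200 ppm equals 500 g/ha). Rating after 24 h at 20° C in saturation plus 6 days in 20° C growth chamber; 0–100 scale versus controls.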

Septoria nodorum = test: Test C: preventive spray on wheat seedlings, Septoria glume blotch, disease rating; details: wheat seedlings sprayed to run-off, inoculated the following day with Septoria nodorum, 48 h saturated atmosphere then 9 days at 20° C.; test concentration not given
Summary of the method: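 Preventive test: one day after spraying (to run-off; 200 ppm ≈ 500 g/ha, in acetone/water with 250 ppm surfactant), seedlings received a S. nodorum spore suspension. After 48 h in saturated air and 9 days in a growth chamber, both at 20° C., % disease control versus controls was scored.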

Cc1cc(OCCC[Si](C)(C)C)c(C(C)C)cc1N=CN(C)C(C)C [compound 74]
Test A disease control rating (100 = 100% disease control, 0 = no disease control relative to the controls) [1]: 100% | Test B disease control rating (100 = 100% disease control, 0 = no disease control relative to the controls) (Puccinia recondita): 100% | Test C disease control rating (100 = 100% disease control, 0 = no disease control relative to the controls) (Septoria nodorum): 100%

CCN(C)C(=S)Nc1cc(C)c(OCCCC(C)(C)C)c(Cl)c1C [compound 139]
Test A disease control rating (100 = 100% disease control, 0 = no disease control relative to the controls) [1]: 100% | Test B disease control rating (100 = 100% disease control, 0 = no disease control relative to the controls) (Puccinia recondita): 100% | Test C disease control rating (100 = 100% disease control, 0 = no disease control relative to the controls) (Septoria nodorum): 99%

CCN(C)C(=S)Nc1cc(Cl)c(OCCC[Si](C)(C)CC)cc1C [compound 84]
Test A disease control rating (100 = 100% disease control, 0 = no disease control relative to the controls) [1]: 100% | Test B disease control rating (100 = 100% disease control, 0 = no disease control relative to the controls) (Puccinia recondita): 100% | Test C disease control rating (100 = 100% disease control, 0 = no disease control relative to the controls) (Septoria nodorum): 100%

Cc1cc(OCCC[Si](C)(C)C)c(Cl)cc1N=CN(C)C1CC1 [compound 61]
Test A disease control rating (100 = 100% disease control, 0 = no disease control relative to the controls) [1]: 100% | Test B disease control rating (100 = 100% disease control, 0 = no disease control relative to the controls) (Puccinia recondita): 100% | Test C disease control rating (100 = 100% disease control, 0 = no disease control relative to the controls) (Septoria nodorum): 100%

CCN(C)C(=S)Nc1cc(Cl)c(OCCCC(C)C)cc1C [compound 114]
Test A disease control rating (100 = 100% disease control, 0 = no disease control relative to the controls) [1]: 99% | Test B disease control rating (100 = 100% disease control, 0 = no disease control relative to the controls) (Puccinia recondita): 100% | Test C disease control rating (100 = 100% disease control, 0 = no disease control relative to the controls) (Septoria nodorum): 100%

CC(C)=CCC[C@@H](C)CCOc1cc(C)c(N=CN(C)C)cc1C [Compound 15]
Test A disease control rating (100 = 100% disease control, 0 = no disease control relative to the controls) [1]: 94% | Test B disease control rating (100 = 100% disease control, 0 = no disease control relative to the controls) (Puccinia recondita): 100% | Test C disease control rating (100 = 100% disease control, 0 = no disease control relative to the controls) (Septoria nodorum): 0%

CCCCC(CCCC)Nc1cc(C)c(N=CN(C)C)cc1C [compound 150]
Test A disease control rating (100 = 100% disease control, 0 = no disease control relative to the controls) [1]: 0% | Test B disease control rating (100 = 100% disease control, 0 = no disease control relative to the controls) (Puccinia recondita): 0% | Test C disease control rating (100 = 100% disease control, 0 = no disease control relative to the controls) (Septoria nodorum): 47%

CCN(CC)C(=S)Nc1cc(Cl)c(OCCCC(C)(C)C)cc1C [compound 120]
Test A disease control rating (100 = 100% disease control, 0 = no disease control relative to the controls) [1]: 91% | Test B disease control rating (100 = 100% disease control, 0 = no disease control relative to the controls) (Puccinia recondita): 8% | Test C disease control rating (100 = 100% disease control, 0 = no disease control relative to the controls) (Septoria nodorum): 0%

Cc1cc(OCCCC(C)C)c(C)cc1NC(=S)N(C)C [compound 107]
Test A disease control rating (100 = 100% disease control, 0 = no disease control relative to the controls) [1]: 60% | Test B disease control rating (100 = 100% disease control, 0 = no disease control relative to the controls) (Puccinia recondita): 99% | Test C disease control rating (100 = 100% disease control, 0 = no disease control relative to the controls) (Septoria nodorum): 99%

C=CCCCCOc1cc(C)c(N=CN(C)C)cc1C [Compound 5]
Test A disease control rating (100 = 100% disease control, 0 = no disease control relative to the controls) [1]: 0% | Test B disease control rating (100 = 100% disease control, 0 = no disease control relative to the controls) (Puccinia recondita): 100% | Test C disease control rating (100 = 100% disease control, 0 = no disease control relative to the controls) (Septoria nodorum): 89%

Cc1cc(OCCCC(C)C(C)C)c(C)cc1N=CN(C)C (stereo not drawn) [Compound 49]
Test A disease control rating (100 = 100% disease control, 0 = no disease control relative to the controls) [1]: 99% | Test B disease control rating (100 = 100% disease control, 0 = no disease control relative to the controls) (Puccinia recondita): 99% | Test C disease control rating (100 = 100% disease control, 0 = no disease control relative to the controls) (Septoria nodorum): 83%

C=CCN(C)C(=S)Nc1cc(Cl)c(OCCC[Si](C)(C)C)cc1C [compound 85]
Test A disease control rating (100 = 100% disease control, 0 = no disease control relative to the controls) [1]: 100% | Test B disease control rating (100 = 100% disease control, 0 = no disease control relative to the controls) (Puccinia recondita): 99% | Test C disease control rating (100 = 100% disease control, 0 = no disease control relative to the controls) (Septoria nodorum): 100%

CCN(C)C(=Nc1cc(C)c(OCCC[Si](C)(C)C)cc1C)C(=O)OC [compound 131]
Test A disease control rating (100 = 100% disease control, 0 = no disease control relative to the controls) [1]: 67% | Test B disease control rating (100 = 100% disease control, 0 = no disease control relative to the controls) (Puccinia recondita): 100% | Test C disease control rating (100 = 100% disease control, 0 = no disease control relative to the controls) (Septoria nodorum): 96%

CCN(C)C(=S)Nc1cc(C)c(OCCC[Si](C)(CC)CC)cc1C [compound 79]
Test A disease control rating (100 = 100% disease control, 0 = no disease control relative to the controls) [1]: 0% | Test B disease control rating (100 = 100% disease control, 0 = no disease control relative to the controls) (Puccinia recondita): 99% | Test C disease control rating (100 = 100% disease control, 0 = no disease control relative to the controls) (Septoria nodorum): 100%

CCCN(C)C=Nc1cc(C(C)C)c(OCCC[Si](C)(C)C)cc1C [compound 75]
Test A disease control rating (100 = 100% disease control, 0 = no disease control relative to the controls) [1]: 100% | Test B disease control rating (100 = 100% disease control, 0 = no disease control relative to the controls) (Puccinia recondita): 100% | Test C disease control rating (100 = 100% disease control, 0 = no disease control relative to the controls) (Septoria nodorum): 100%

CCN(C)C(=S)Nc1cc(Cl)c(OCCCC(C)C)cc1Cl [compound 124]
Test A disease control rating (100 = 100% disease control, 0 = no disease control relative to the controls) [1]: 98% | Test B disease control rating (100 = 100% disease control, 0 = no disease control relative to the controls) (Puccinia recondita): 98% | Test C disease control rating (100 = 100% disease control, 0 = no disease control relative to the controls) (Septoria nodorum): 100%

From US20050182025A1, “Amidinylphenyl compounds and their use as fungicides” (priority 2002, published 2005)
